Assay results reported in patent US9073853B2, “Cycloalkane carboxylic acid derivatives as CXCR3 receptor antagonists” (Sanofi, priority 2011, dated 2015).
Structures can show the parent of a compound that is named as a salt.

Target: human CXCR3-A receptor (Homo sapiens (Human), UniProt P49682)
Experiment: 125I-CXCL10 competition radioligand binding assay
Details: displacement of 125I-CXCL10 from membranes of CHO cells expressing human recombinant CXCR3-A
Procedure, shortened: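 Membranes from a recombinant cell line expressing human CXCR3-A (10-20 μg protein) were incubated with 125I-CXCL10 and test compound for 60 min at 25° C, then filtered onto PEI-soaked GF/B filters and gamma-counted. IC50 and Hill slope came from four-parameter nonlinear fitting of competition curves.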

human CXCR3-A receptor, sequence (P49682 whole entry): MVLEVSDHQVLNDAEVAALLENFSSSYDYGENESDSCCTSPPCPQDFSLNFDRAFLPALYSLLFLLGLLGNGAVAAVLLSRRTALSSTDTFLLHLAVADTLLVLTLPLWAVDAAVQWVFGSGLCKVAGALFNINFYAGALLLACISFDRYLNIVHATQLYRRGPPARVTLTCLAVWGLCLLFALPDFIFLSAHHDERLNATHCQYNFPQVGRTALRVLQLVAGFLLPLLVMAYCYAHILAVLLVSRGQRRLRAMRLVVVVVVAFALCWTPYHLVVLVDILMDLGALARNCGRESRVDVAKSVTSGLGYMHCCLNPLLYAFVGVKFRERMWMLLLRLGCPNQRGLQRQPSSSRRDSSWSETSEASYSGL

Structure (SMILES)	IC50
COc1cc(CN(C[C@H]2CC[C@H](C(=O)O)CC2)[C@H]2CCc3cc(Cl)ccc32)ccc1OCCN1C(=O)[C@H]2CC=CC[C@H]2C1=O [Example 155, trans-4-[(((S)-5-Chloro-indan-1-yl)-{4-[2-((3aS,7aR)-1,3-dioxo-1,3,3a,4,7,7a-hexahydro-isoindol-2-yl)-ethoxy]-3-methoxy-benzyl}-amino)-methyl]-cyclohexanecarboxylic acid; hydrochloride]	2870 nM
COc1cc(CN(C[C@H]2CC[C@H](C(=O)O)CC2)C(C)c2ccc(C#N)cc2)ccc1OCCn1c(=O)ccn(C)c1=O (stereo partly drawn) [Example 62, trans-4-[([1-(4-Cyano-phenyl)-ethyl]-{3-methoxy-4-[2-(3-methyl-2,6-dioxo-3,6-dihydro-2H-pyrimidin-1-yl)-ethoxy]-benzyl}-amino)-methyl]-cyclohexanecarboxylic acid]	200 nM
Cc1cc(CN(C[C@H]2CC[C@H](C(=O)O)CC2)C2CCc3cc(Cl)ccc32)ccc1OCCN1C(=O)CN(C)C1=O (stereo partly drawn) [Example 57, trans-4-[((5-Chloro-indan-1-yl)-{3-methyl-4-[2-(3-methyl-2,5-dioxo-imidazolidin-1-yl)-ethoxy]-benzyl}-amino)-methyl]-cyclohexanecarboxylic acid]	200 nM
CCc1cc(CN(C(C)c2ccc(Cl)c(F)c2)[C@H]2C[C@@H](C(=O)O)C2)ccc1OCCN1C(=O)CCC1=O (stereo partly drawn) [Example 140, cis-3-([1-(4-Chloro-3-fluoro-phenyl)-ethyl]-{4-[2-(2,5-dioxo-pyrrolidin-1-yl)-ethoxy]-3-ethyl-benzyl}-amino)-cyclobutanecarboxylic acid]	260 nM
CCOC(=O)[C@@H]1C[C@H]1CN(Cc1ccc(OCCN2C(=O)CCC2=O)c(OC)c1)C(C)c1ccc2c(c1)CCO2 (stereo partly drawn) [Example 111, (1R,2R)-2-[([1-(2,3-Dihydro-benzofuran-5-yl)-ethyl]-{4-[2-(2,5-dioxo-pyrrolidin-1-yl)-ethoxy]-3-methoxy-benzyl}-amino)-methyl]-cyclopropanecarboxylic acid ethyl ester]	646 nM
COc1cc(CN(C[C@H]2CC[C@H](C(=O)O)C2)[C@@H](C)c2ccc3c(c2)CCO3)ccc1OCCN1C(=O)CCC1=O [Example 110, (1S,3S)-3-[([(S)-1-(2,3-Dihydro-benzofuran-5-yl)-ethyl]-{4-[2-(2,5-dioxo-pyrrolidin-1-yl)-ethoxy]-3-methoxy-benzyl}-amino)-methyl]-cyclopentanecarboxylic acid]	525 nM
CCOC(=O)[C@H]1CC[C@H](CN(Cc2ccc(OCCN3C(=O)CCC3=O)c(OC)c2)C(C)c2ccc3c(c2)CCO3)CC1 (relative stereo) [Example 1.1, trans-4-[([1-(2,3-Dihydro-benzofuran-5-yl)-ethyl]-{4-[2-(2,5-dioxo-pyrrolidin-1-yl)-ethoxy]-3-methoxy-benzyl}-amino)-methyl]-cyclohexanecarboxylic acid ethyl ester]	177 nM
CCC(c1ccc(Cl)cc1)N(Cc1ccc(OCCN2C(=O)CN(C)C2=O)c(C)c1)C[C@@H]1[C@@H](C(=O)O)C1(C)C (stereo partly drawn) [Example 115, (1R,3R)-3-[([1-(4-Chloro-phenyl)-propyl]-{3-methyl-4-[2-(3-methyl-2,5-dioxo-imidazolidin-1-yl)-ethoxy]-benzyl}-amino)-methyl]-2,2-dimethyl-cyclopropanecarboxylic acid]	244 nM
Cc1cc(CN(C[C@H]2CC[C@H](C(=O)O)CC2)[C@@H]2CCc3cc(Cl)ccc32)ccc1OCCN1C(=O)CCC1=O [Example 31, trans-4-[(((R)-5-Chloro-indan-1-yl)-{4-[2-(2,5-dioxo-pyrrolidin-1-yl)-ethoxy]-3-methyl-benzyl}-amino)-methyl]-cyclohexanecarboxylic acid]	360 nM
COc1cc(CN([C@H]2C[C@@H](C(=O)O)C2)[C@@H](C)c2ccc3c(c2)CCO3)ccc1OCCn1c(=O)ccn(C)c1=O [Example 123, cis-3-([(S)-1-(2,3-Dihydro-benzofuran-5-yl)-ethyl]-{3-methoxy-4-[2-(3-methyl-2,6-dioxo-3,6-dihydro-2H-pyrimidin-1-yl)-ethoxy]-benzyl}-amino)-cyclobutanecarboxylic acid]	7000 nM
Cc1cc(CN(C(C)c2ccc(Cl)c(Cl)c2)[C@H]2C[C@@H](C(=O)O)C2)ccc1OCCN1C(=O)CCC1=O (stereo partly drawn) [Example 138, cis-3-([1-(3,4-Dichloro-phenyl)-ethyl]-{4-[2-(2,5-dioxo-pyrrolidin-1-yl)-ethoxy]-3-methyl-benzyl}-amino)-cyclobutanecarboxylic acid]	670 nM
COc1cc(CN(C[C@H]2CC[C@@H](C(=O)O)C2)[C@@H](C)c2ccc3c(c2)CCO3)ccc1OCCN1C(=O)CCC1=O [Example 107, (1R,3S)-3-[([(S)-1-(2,3-Dihydro-benzofuran-5-yl)-ethyl]-{4-[2-(2,5-dioxo-pyrrolidin-1-yl)-ethoxy]-3-methoxy-benzyl}-amino)-methyl]-cyclopentanecarboxylic acid]	5130 nM
Cc1cc(CN(C(C)c2ccc3c(c2)CCO3)[C@H]2C[C@@H](C(=O)O)C2)ccc1OCCn1c(=O)ccn(C)c1=O (stereo partly drawn) [Example 134, cis-3-([1-(2,3-Dihydro-benzofuran-5-yl)-ethyl]-{3-methyl-4-[2-(3-methyl-2,6-dioxo-3,6-dihydro-2H-pyrimidin-1-yl)-ethoxy]-benzyl}-amino)-cyclobutanecarboxylic acid]	240 nM
COc1cc(CN(C[C@H]2CC[C@H](C(=O)O)CC2)C(C)c2ccc3c(c2)CCO3)ccc1OCCN1C(=O)CCCC1=O (stereo partly drawn) [Example 38, trans-4-[([1-(2,3-Dihydro-benzofuran-5-yl)-ethyl]-{4-[2-(2,6-dioxo-piperidin-1-yl)-ethoxy]-3-methoxy-benzyl}-amino)-methyl]-cyclohexanecarboxylic acid]	163 nM
COc1cc(CN(C[C@H]2CC[C@H](C(=O)O)CC2)[C@@H]2CCc3cc(Cl)ccc32)ccc1OCCN1C(=O)CCC1=O [Example 11, trans-4-[(((R)-5-Chloro-indan-1-yl)-{4-[2-(2,5-dioxo-pyrrolidin-1-yl)-ethoxy]-3-methoxy-benzyl}-amino)-methyl]cyclohexanecarboxylic acid]	200 nM
COc1cc(CN(C[C@H]2CC[C@H](C(=O)O)CC2)C2CCc3cc(Cl)c(F)cc32)ccc1OCCN1C(=O)CCC1=O (stereo partly drawn) [Example 98, trans-4-[((5-Chloro-6-fluoro-indan-1-yl)-{4-[2-(2,5-dioxo-pyrrolidin-1-yl)-ethoxy]-3-methoxy-benzyl}-amino)-methyl]-cyclohexanecarboxylic acid]	155 nM

Other lines, results leading:

IC50	Structure (SMILES)
150 nM	Cc1cc(CN(C[C@H]2CC[C@H](C(=O)O)CC2)C2CCc3cc(Cl)ccc32)ccc1OCCN1C(=O)CCC1=O (stereo partly drawn) [Example 29, trans-4-[((5-Chloro-indan-1-yl)-{4-[2-(2,5-dioxo-pyrrolidin-1-yl)-ethoxy]-3-methyl-benzyl}-amino)-methyl]-cyclohexanecarboxylic acid]
149 nM	COc1cc(CN([C@H]2C[C@@H](C(=O)O)C2)[C@H](C)c2ccc(Cl)c(Cl)c2)ccc1OCCN1C(=O)CCC1=O [Example 152, cis-3-([(R)-1-(3,4-Dichloro-phenyl)-ethyl]-{4-[2-(2,5-dioxo-pyrrolidin-1-yl)-ethoxy]-3-methoxy-benzyl}-amino)-cyclobutanecarboxylic acid]
144 nM	COc1cc(CN(C[C@@H]2CC[C@H](C(=O)O)C2)[C@@H](C)c2ccc3c(c2)CCO3)ccc1OCCN1C(=O)CCC1=O [Example 106, (1S,3R)-3-[([(S)-1-(2,3-Dihydro-benzofuran-5-yl)-ethyl]-{4-[2-(2,5-dioxo-pyrrolidin-1-yl)-ethoxy]-3-methoxy-benzyl}-amino)-methyl]-cyclopentanecarboxylic acid]
98 nM	COc1cc(CN([C@H]2C[C@@H](C(=O)O)C2)[C@H](C)c2ccc(Cl)c(F)c2)ccc1OCCN1C(=O)CCC1=O [Example 150, cis-3-([(R)-1-(4-Chloro-3-fluoro-phenyl)-ethyl]-{4-[2-(2,5-dioxo-pyrrolidin-1-yl)-ethoxy]-3-methoxy-benzyl}-amino)-cyclobutanecarboxylic acid]
85 nM	CCc1cc(CN(C[C@H]2CC[C@H](C(=O)O)CC2)[C@H]2CCc3c2ccc(Cl)c3Cl)ccc1OCCN1C(=O)CCC1=O [Example 86, trans-4-[(((S)-4,5-Dichloro-indan-1-yl)-{4-[2-(2,5-dioxo-pyrrolidin-1-yl)-ethoxy]-3-ethyl-benzyl}-amino)-methyl]-cyclohexanecarboxylic acid]
80 nM	COc1cc(CN(C[C@H]2CC[C@H](C(=O)O)CC2)[C@H](C)c2ccc(Cl)c(C)c2)ccc1OCCN1C(=O)CCC1=O [Example 27, trans-4-[([(R)-1-(4-Chloro-3-methyl-phenyl)-ethyl]-{4-[2-(2,5-dioxo-pyrrolidin-1-yl)-ethoxy]-3-methoxy-benzyl}-amino)-methyl]-cyclohexanecarboxylic acid]
28 nM	COc1cc(CN(C[C@H]2CC[C@H](C(=O)O)CC2)[C@@H](C)c2ccc(Cl)cc2)ccc1OCCN1C(=O)COC1=O [Example 36, trans-4-[([(S)-1-(4-Chloro-phenyl)-ethyl]-{4-[2-(2,4-dioxo-oxazolidin-3-yl)-ethoxy]-3-methoxy-benzyl}-amino)-methyl]-cyclohexanecarboxylic acid]
25 nM	COc1cc(CN(C[C@H]2CC[C@H](C(=O)O)CC2)C(C)c2ccc(Cl)c(C)c2)ccc1OCCN1C(=O)CCC1=O (stereo partly drawn) [Example 25, trans-4-[([1-(4-Chloro-3-methyl-phenyl)-ethyl]-{4-[2-(2,5-dioxo-pyrrolidin-1-yl)-ethoxy]-3-methoxy-benzyl}-amino)-methyl]-cyclohexanecarboxylic acid]

Same assay, conditions: read-out: % at 10 μM; at 10 μM; displacement of 125I-CXCL10

inhibition at 10 µM	Structure (SMILES)
26%	COc1cc(CN([C@H]2C[C@H](C(=O)O)C2)[C@H](C)c2ccc3c(c2)CCC3)ccc1OCCn1c(=O)ccn(C)c1=O [Example 160, trans-3-(((R)-1-Indan-5-yl-ethyl)-{3-methoxy-4-[2-(3-methyl-2,6-dioxo-3,6-dihydro-2H-pyrimidin-1-yl)-ethoxy]-benzyl}-amino)-cyclobutanecarboxylic acid]
